Laboratory results: US20170112861A1, “DRUG DELIVERY ENHANCER COMPRISING SUBSTANCE FOR ACTIVATING LYSOPHOSPHOLIPID RECEPTORS” (Osaka University, priority 2014, published 2017)

What was measured:
[1] = system: tumor blood vessels of LLC cell tumors; assay: Structural changes in tumor blood vessels after S1P administration (anti-CD31 immunostaining); assay type: in vivo; settings: LLC tumor-bearing mice, S1P 0.3 mg/kg tail vein once daily for three days, 24 hours after final administration
Description: LLC cells were subcutaneously inoculated into C57BL/6 […] mice aged 8 weeks (females, SLC, Inc.) in the same manner as in Example 1. S1P (Avanti Polar Lipids, Inc.) was dissolved in PBS at 10 mM and the solution was stored at -30° C. as a stock solution. Before use, the stock solution was thawed and homogenized with an ultrasonic cleaner (SND Co., Ltd.) for 1 minute. The solution was diluted in PBS before administration so that the concentration of S1P was 0.3 mg/kg in 100 μL PBS. The prepared solution was used for S1P administration. Mice on day 9 post-inoculation of LLC cells (individuals with a tumor volume of 60 to 80 mm^3) were subjected to the experiment. The mice were divided into two groups: control group and S1P group (n=3). From the day of grouping, S1P was administered to the tail vein of the S1P group mice at a dose of 0.3 mg/kg in 100 μL PBS once daily for consecutive three days. To the control group mice, PBS (100 μL) was administered instead of S1P. At 24 hours after the final administration, the tumors were harvested from the mice, and the specimens of tumor blood vessels were prepared in the same manner as in Example 1. The specimens were observed and photographed under a confocal laser microscope (Leica).

[2] = system: Mouse pancreatic vascular endothelial cell line (MS-1); assay: In vitro barrier function of endothelial cell-cell junctions (ECIS-Zθ, resistance between cells Rb); assay type: cell-based; settings: MS-1 cells, 10 μM
Description: In vitro barrier function of the cell-cell junctions of vascular endothelial cells in the presence of LPA or VPC 31144 (S) was analyzed using a real-time cell ECIS-Zθ analyzer (Applied Biophysics).
LPA and VPC 31144 (S) were each dissolved in 50% ethanol as a 10 mM LPA stock solution and stored at −30° C. Before use, the LPA stock solution was thawed and homogenized with an ultrasonic cleaner (SND Co., Ltd.) for 1 minute. The solution was diluted in a serum-free culture medium supplemented with 0.1% BSA to a concentration of 10 μM.
Mouse pancreatic vascular endothelial cell line (MS-1) was used. The cells were suspended in DMEM (Sigma) containing 5% FBS. The cell suspension was seeded on a well plate with electrodes (8W10E+, 8 wells) specially designed for the analyzer at a density of 1×10^5 cells in 400 μL per well, and the cells were cultured overnight in an incubator to confluence. The medium was replaced by serum-free culture medium containing 0.1% BSA, and the cells were incubated for 4 hours. The medium was replaced by culture medium (serum-free culture medium containing 0.1% BSA) containing 10 μM LPA or VPC 31144 (S). The medium of the control cultures was replaced by serum-free culture medium containing 0.1% BSA. After replacement of the medium, resistance between cells (Rb) was measured in real time to evaluate the barrier function.

SMILES | formation of a network of tumor blood vessels [1] | speed of barrier function increase ([2]; immediately after addition, compared with LPA) | electric resistance (Rb), barrier function in endothelial cells ([2]; serum-free medium with 0.1% BSA, vs control)
CCCCCCCCCCCCC/C=C/[C@@H](O)[C@@H](N)COP(=O)(O)O [S1P, sphingosine-1-phosphate] | the formation of a network of tumor blood vessels was induced | – | –
CCCCCCCC/C=C\CCCCCCCC(=O)N[C@@H](CO)COP(=O)(O)O [VPC 31144, N-{(1S)-2-hydroxy-1-[(phosphonooxy)methyl]ethyl}(9Z) octadec-9-enamide] | – | more rapidly increased the barrier function immediately after the administration, as compared with addition of LPA | also increased the barrier function in endothelial cells
